Measured values reported in US20150335634A1, “ISOQUINOLINE ALKALOID DERIVATIVE FOR ACTIVATING AMP-DEPENDENT PROTEIN KINASE” (ZIH YUAN TANG Biotechnology Co., Ltd, priority 2014, published 2015).

What was measured:
[1] = system: AMP-dependent protein kinase (AMPK); test: AMPK phosphorylation (Phospho-AMPKα Thr172 Western blot) in C2C12 myocytes; type: cell-based, mice
Method: C2C12 skeletal myoblast cell line was purchased from the Food Industry Research and Development Institute (Hsinchu, Taiwan). The C2C12 cell line was a cell line obtained from culturing the leg skeletal muscle of adult C3H mice in a cell incubator under 95% […], 5% CO2, and 37° C. The cells were cultured in a DMEM medium (Gibco/Invitrogen, Carlsbad, Calif.) containing 4.5 mg/mL glucose, 10% fetal bovine serum (FBS; Gibco/Invitrogen, Carlsbad, Calif.), and an antibiotic solution (with final concentrations of penicillin=100 IU/mL and streptomycin=100 μg/mL). When the C2C12 myoblast cells have proliferated to cover seven-tenths of the area in the petri dish, the fetal bovine serum was replaced by 2% horse serum (Gibco/Invitrogen, Carlsbad, Calif.) so as to induce the C2C12 myoblast cells to become the multi-nuclei myocytes. The C2C12 myoblast cells differentiated into myocytes in 4 days, and the culture medium of the cells was replaced with no-serum DMEM 24 hours before the experiments so as to reduce metabolism of the cells.
The C2C12 myocytes were treated respectively with 1 μM, 3 μM and 10 μM salsolinol and reticuline for 5 and 15 minutes. Then the C2C12 myocytes were rinsed with PBS buffer solution, and RIPA buffer solution containing protease inhibitors (20 mM Tris-HCl (pH 7.4), 100 mM NaCl, 1 mM EDTA, 1 mM EGTA, 0.1% SDS, 0.5% sodium deoxycholate, 1% NP-40, and 100X protease inhibitor cocktail) was added into the cells. The cells were collected and centrifuged on ice. Then, the concentrations of the supernatant samples were adjusted to be the same.
The supernatant samples were put through vertical electrophoresis isolation with 8% SDS-PAGE, and the isolated proteins were transferred onto a PVDF blotting membrane. After blotting was completed, the PVDF blotting membrane was removed and blocked for 1 hour under room temperature with a blocking buffer of TBST (Tris-buffered saline with Tween-20) with 5% non-fat milk. Then, the PVDF blotting membrane was placed into a 5% BSA and TBST solution containing the primary monoclonal antibodies Phospho-AMPKα (Thr172) (Cell Signaling) (1:1000) and AMPKα […] (Cell Signaling) (1:1000), respectively, and the primary immunoblotting reaction was performed under 4° C. Then, the PVDF blotting membrane was rinsed 3 times with TBST, and a TBST solution containing the secondary antibody goat anti-rabbit IgG (Perkin Elmer) (1:10000) was added to perform the secondary reaction for one hour under room temperature. Finally, the membrane was rinsed 3 times with TBST before ECL (enhanced chemiluminescence) was added to present color.

[2] = system: ICR mice with Type II diabetes induced by high-sugar high-lipid food; test: oral glucose tolerance test (OGTT) in ICR mice fed with high-lipid food and high fructose syrup; type: in vivo
Method: (§1) ICR mice were each fed with high-lipid food and high fructose syrup for 2 weeks. Then, salsolinol (10 mg/Kg/day) and Glibenclamide (10 mg/Kg) were administered on day 1. After 30 minutes, glucose (1 g/Kg) was orally administered and blood was taken from the mice immediately thereafter (this time point was designated as 0 minute). Blood was also taken later at 30, 60, 90, 120 and 150 minutes, and the blood glucose levels in the serum were determined
as §1, with “weeks, and then administered with salsolinol (10 mg/Kg/day) and Glibenclamide (10 mg/Kg) for 14 consecutive days. Afterwards,” for “weeks. Then,”, “again administered, and” for “administered on day 1. After 30 minutes,”, “administered after 30 minutes” for “administered”, “determined.” for “determined”
The effect of blood glucose reduction was evaluated with the oral glucose tolerance test (OGTT). […] Blood was also taken later at 30, 60, 90, 120 and 150 minutes, and the blood glucose levels in the serum were determined after centrifugation.

insulin secretion = test: effect on insulin secretion compared with Glibenclamide; conditions: as opposed to Glibenclamide

Row | SMILES | AMPK phosphorylation relative to control cells ([1]; 3 μM, treated for 5 minutes) | AMPK phosphorylation relative to control cells ([1]; 3 μM, treated for 15 minutes) | AMPK phosphorylation relative to control cells ([1]; 10 μM, treated for 5 minutes) | AMPK phosphorylation relative to control cells ([1]; 10 μM, treated for 15 minutes) | long-term reduction of blood glucose (OGTT) ([2]; 10 mg/Kg/day for 14 consecutive days, glucose 1 g/Kg orally after 30 minutes, compared with Glibenclamide 10 mg/Kg (FIG. 4)) | fast reduction of blood glucose (OGTT) ([2]; 10 mg/Kg/day, administration on day 1, glucose 1 g/Kg orally after 30 minutes, compared with Glibenclamide 10 mg/Kg (FIG. 3)) | effect on insulin secretion (insulin secretion)
1 | COc1ccc(C[C@H]2c3cc(O)c(OC)cc3CCN2C)cc1O [reticuline] | 1.52 times of that in the control cells | 1.04 times of that in the control cells | 2.05 times of that in the control cells | 2.07 times of that in the control cells |  |  | 
2 | CC1NCCc2cc(O)c(O)cc21 (centres unmarked) [salsolinol] |  |  | 1.66 times of that in the control cells |  | blood glucose-reduction effect similar to that of Glibenclamide | blood glucose-reduction effect similar to that of Glibenclamide | lower effect on insulin secretion
